Results as given in US20210198269A1, “INHIBITORS OF GLUCOSE TRANSPORTERS (GLUTs)” (LEAD DISCOVERY CENTER GMBH, priority 2018, published 2021).

Columns and labels:
Type in all cases: cell-based
[1] = molecular target: T1, GLUT3 (Homo sapiens, UniProt P11169); experiment: GLUT3 transporter activity assay (2-DG uptake) in DLD-1-GLUT1-/- cells; conditions: DLD-1-GLUT1-/- cell line; read-out: GLUT3 inhibitory activity (IC50)
T1 construct: host or cells: DLD-1-GLUT1(-/-) cells
T1 sequence (P11169 1-496): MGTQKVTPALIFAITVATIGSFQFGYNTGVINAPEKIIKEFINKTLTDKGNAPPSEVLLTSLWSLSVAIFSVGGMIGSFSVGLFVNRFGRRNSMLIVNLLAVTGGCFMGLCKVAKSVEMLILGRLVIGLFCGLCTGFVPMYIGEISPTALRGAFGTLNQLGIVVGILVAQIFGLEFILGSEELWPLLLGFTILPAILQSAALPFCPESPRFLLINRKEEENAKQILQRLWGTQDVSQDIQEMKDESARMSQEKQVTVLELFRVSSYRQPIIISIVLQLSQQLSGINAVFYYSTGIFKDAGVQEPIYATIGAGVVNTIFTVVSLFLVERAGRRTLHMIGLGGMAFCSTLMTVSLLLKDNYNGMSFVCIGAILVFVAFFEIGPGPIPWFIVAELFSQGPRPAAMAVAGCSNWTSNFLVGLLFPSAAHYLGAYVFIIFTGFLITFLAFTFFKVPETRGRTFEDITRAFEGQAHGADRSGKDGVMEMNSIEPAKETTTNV
From the text: (§1) GLUT 1, 2, 3 and 4 Transporter Activity Assays
(§2) Assays were based on the specificity assays reported by Kapoor et al., Proceedings of the National Academy of Sciences 2016, 113 (17) 4711-4716. For GLUT1, GLUT2, GLUT3 and GLUT4 specificity testing DLD1, CHO-hGLUT2, DLD-1-GLUT1−/− and CHO-hGLUT4 cell lines were used.
(§3) Assay protocols for 2-deoxy-Glucose (2-DG) Uptake Assay with DLD1 or DLD1-Glut1(−/−) cells or 7,000 CHOK1-SLC2A4 cells lines:
(§4) 14,000 DLD1 or DLD1-Glut1(−/−) cells or 7,000 CHOK1-SLC2A4 cells were seeded in black, clear bottom 384-well plates in glucose- and phenolred-free RPMI1640 medium supplemented with 1% FCS and 2 mM L-glutamine and allowed to attach overnight. Next day, cells were washed and incubated with compounds or DMSO and 1 mM 2-DG in glucose- and phenolred-free RPMI1640 medium for 30 min. Cells were then washed and lysed in 0.06 M HCl and 1% CHAPS for 15 min at 65° C. The amount of 2-DG in the lysate was determined by means of enzyme-coupled assay. For this 16 U/mL glucose-6-phosphate dehydrogenase, 0.2 U/mL diaphorase, 0.1 mM NADP^+ and 10 μM resazurin were added to the lysates. Resorufin fluorescence was determined as a measure of 2-DG uptake at ex/em 535/590 nm with a Victor Multilabel plate reader (Perkin Elmer). Blank values were subtracted from all readings and values were normalized to the DMSO control.

[2] = molecular target: T2, GLUT4 (Homo sapiens, UniProt P14672); experiment: GLUT4 transporter activity assay (2-DG uptake) in CHO-hGLUT4 cells; conditions: CHO-hGLUT4 cell line; read-out: GLUT4 inhibitory activity (IC50)
T2 sequence (P14672 1-509): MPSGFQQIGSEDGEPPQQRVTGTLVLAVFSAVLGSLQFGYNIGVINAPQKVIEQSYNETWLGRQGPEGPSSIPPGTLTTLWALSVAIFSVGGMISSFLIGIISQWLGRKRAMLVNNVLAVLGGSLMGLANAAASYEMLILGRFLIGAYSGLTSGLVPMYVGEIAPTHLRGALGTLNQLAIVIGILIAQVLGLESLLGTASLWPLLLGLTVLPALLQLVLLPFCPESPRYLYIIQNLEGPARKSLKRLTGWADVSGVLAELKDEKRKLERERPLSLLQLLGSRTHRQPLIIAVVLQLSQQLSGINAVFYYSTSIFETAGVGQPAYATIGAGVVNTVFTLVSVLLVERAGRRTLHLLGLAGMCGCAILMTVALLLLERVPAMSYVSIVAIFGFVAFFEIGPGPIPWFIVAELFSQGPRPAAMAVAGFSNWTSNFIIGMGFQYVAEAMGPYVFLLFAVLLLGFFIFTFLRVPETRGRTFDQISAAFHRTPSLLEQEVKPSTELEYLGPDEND
Protocol: CHOK1-SLC2A4 cells were generated by transfection of CHOK1 cells with pCMV6-Entry-GLUT4 (Origene #SC125240) using Lipofectamin2000 according to the supplier's instructions. Briefly, 1.5E5 cells/well CHOK1 cells were seeded in 6-well cell culture plates. After overnight incubation, DNA-lipid complexes (2 μg plasmid DNA, DNA:lipid ratio 1:10) were prepared in OptiMEM and then added to the cells. After 5 days incubation, 800 μg G418 was added to the culture medium to generate a stable polyclone. For monoclone selection, single cells were re-plated in 96-well plates, expanded and selected by transgene overexpression and functional performance.
as §1, §2, §3, §4

[3] = molecular target: T3, GLUT1 (Homo sapiens, UniProt P11166); experiment: GLUT1 transporter activity assay (2-DG uptake) in DLD1 cells; conditions: DLD1 cell line; read-out: GLUT1 inhibitory activity (IC50)
T3 construct: host or cells: DLD-1 (DLD1) cells
T3 sequence (P11166 1-492): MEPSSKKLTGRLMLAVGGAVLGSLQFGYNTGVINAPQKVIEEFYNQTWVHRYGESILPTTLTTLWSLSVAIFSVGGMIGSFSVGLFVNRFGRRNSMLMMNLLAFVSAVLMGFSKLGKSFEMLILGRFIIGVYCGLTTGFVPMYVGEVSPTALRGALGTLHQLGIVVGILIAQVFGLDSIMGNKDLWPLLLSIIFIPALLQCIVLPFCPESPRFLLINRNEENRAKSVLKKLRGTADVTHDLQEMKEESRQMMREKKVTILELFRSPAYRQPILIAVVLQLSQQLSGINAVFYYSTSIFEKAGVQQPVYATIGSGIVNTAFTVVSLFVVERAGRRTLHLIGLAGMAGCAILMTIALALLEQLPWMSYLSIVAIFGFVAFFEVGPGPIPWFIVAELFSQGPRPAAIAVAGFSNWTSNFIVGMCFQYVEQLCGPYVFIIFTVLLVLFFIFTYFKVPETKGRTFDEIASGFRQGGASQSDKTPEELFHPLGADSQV
From the text: as §1, §2, §3, §4

Structure (SMILES)	IC50 [1] [µM]	IC50 [2] [µM]	IC50 [3] [µM]
Cc1ccc(CCNC(=O)c2cccc(N3C(=O)NC4CC3(C)Oc3c(OCC5CC5)cccc34)c2)cc1 (stereo not drawn) [Compound A08, 3-(10-(Cyclopropylmethoxy)-2-methyl-4-oxo-5,6-dihydro-2H-2,6-methanobenzo[g][1,3,5]oxadiazocin-3(4H)-yl)-N-(4-methylphenethyl)benzamide]	0.3 to 1	1 to 4	≤ 0.3
Cc1ccc(CCNC(=O)c2cccc(N3C(=O)NC4CC3(C)Oc3c(OCc5ccncc5)cccc34)c2)cc1 (stereo not drawn) [Compound A09, 3-(2-Methyl-4-oxo-10-(pyridin-4-ylmethoxy)-5,6-dihydro-2H-2,6-methanobenzo[g][1,3,5]oxadiazocin-3(4H)-yl)-N-(4-methylphenethyl)benzamide]	0.3 to 1	4 to 10	≤ 0.3
Cc1ccc(CCNC(=O)c2cccc(N3C(=O)NC4CC3(C)Oc3c(OCc5cccnc5N)cccc34)c2)cc1 (stereo not drawn) [Compound A12, 3-(10-((2-Aminopyridin-3-yl)methoxy)-2-methyl-4-oxo-5,6-dihydro-2H-2,6-methanobenzo[g][1,3,5]oxadiazocin-3(4H)-yl)-N-(4-methylphenethyl)benzamide]	1 to 4	> 25	1 to 4
Cc1ccc(CCNC(=O)c2cccc(N3C(=O)NC4CC3(C)Oc3c(OCc5cncnc5)cccc34)c2)cc1 (stereo not drawn) [Compound A13, 3-(2-Methyl-4-oxo-10-(pyrimidin-5-ylmethoxy)-5,6-dihydro-2H-2,6-methanobenzo[g][1,3,5]oxadiazocin-3(4H)-yl)-N-(4-methylphenethyl)benzamide]	0.3 to 1	> 25	0.3 to 1
Cc1ccc(CCNC(=O)c2cccc(N3C(=O)NC4CC3(C)Oc3c(OCc5cncc(C)c5)cccc34)c2)cc1 (stereo not drawn) [Compound A14, 3-(2-Methyl-10-((5-methylpyridin-3-yl)methoxy)-4-oxo-5,6-dihydro-2H-2,6-methanobenzo[g][1,3,5]oxadiazocin-3(4H)-yl)-N-(4-methylphenethyl)benzamide]	≤ 0.3	1 to 4	≤ 0.3
CC12CC(NC(=O)N1c1cccc(C(=O)N3CCc4ccccc43)c1)c1cccc(OCc3ccccc3)c1O2 (stereo not drawn) [Compound A19, 10-(benzyloxy)-3-(3-(indoline-1-carbonyl)phenyl)-2-methyl-5,6-dihydro-2H-2,6-methanobenzo[g][1,3,5]oxadiazocin-4(3H)-one]	1 to 4	> 25	10 to 25
Cc1ccc(CCOC(=O)c2cccc(N3C(=O)NC4CC3(C)Oc3c(OCc5ccccc5)cccc34)c2)cc1 (stereo not drawn) [Compound A22, 4-methylphenethyl 3-(10-(benzyloxy)-2-methyl-4-oxo-5,6-dihydro-2H-2,6-methanobenzo[g][1,3,5]oxadiazocin-3(4H)-yl)benzoate]	1 to 4	> 25	4 to 10
CC12CC(NC(=O)N1c1cccc(C(=O)NC3Cc4ccccc4C3)c1)c1cccc(OCc3ccccc3)c1O2 (stereo not drawn) [Compound A24, 3-(10-(benzyloxy)-2-methyl-4-oxo-5,6-dihydro-2H-2,6-methanobenzo[g][1,3,5]oxadiazocin-3(4H)-yl)-N-(2,3-dihydro-1H-inden-2-yl)benzamide]	4 to 10	10 to 25	10 to 25
CC12CC(NC(=O)N1c1cccc(C(=O)NC3CCc4ccccc4C3)c1)c1cccc(OCc3ccccc3)c1O2 (stereo not drawn) [Compound A26, 3-(10-(benzyloxy)-2-methyl-4-oxo-5,6-dihydro-2H-2,6-methanobenzo[g][1,3,5]oxadiazocin-3(4H)-yl)-N-(1,2,3,4-tetrahydronaphthalen-2-yl)benzamide]	4 to 10	10 to 25	> 25
CCNC(=O)c1cccc(N2C(=O)NC3CC2(C)Oc2c(OCc4ccccc4)cccc23)c1 (stereo not drawn) [Compound A38, 3-(10-(benzyloxy)-2-methyl-4-oxo-5,6-dihydro-2H-2,6-methanobenzo[g][1,3,5]oxadiazocin-3(4H)-yl)-N-(ethyl)benzamide]	4 to 10	10 to 25	10 to 25
